Columns and labels:
[1] = tested on: Aphis Craccivora (cowpea aphid); experiment: Example B10: activity against Aphis craccivora, pea seedling roots in test solution (systemic/feeding); type: in vivo; settings: 144 h, roots of infested pea seedlings in test solution, 6 days
From the text: Activity Against Aphis Craccivora (Cowpea Aphid)
(Mixed Population, Systemic/Feeding)

[2] = tested on: Nilaparvata lugens (brown rice planthopper); experiment: Example B8: activity against Nilaparvata lugens, sprayed rice seedlings (larvicide, feeding/contact); settings: in Oryza sativa, read-out: activity (mortality, growth regulation, effects on F1 generation)
[3] = tested on: Tetranychus urticae (two-spotted spider mite); experiment: Example B4: activity against Tetranychus urticae, sprayed bean leaf discs (feeding/residual contact, preventive); settings: foliar, 192 h, read-out: activity (egg, larval and adult mortality)
[4] = tested on: Aphis Craccivora (cowpea aphid); experiment: Example B11: translaminar activity against Aphis craccivora on French bean leaves; type: in vivo; settings: 120 h, upper leaf side painted, aphids on lower side, 5 days
Protocol: Translaminar Activity Against Aphis Craccivora (Cowpea Aphid)
French bean leaves (Phaseolus vulgaris) are infested with about 20 mixed age individuals on the lower leaf side using clip cages. 1 day after the infestation, the upper side of the leaves is treated with the test solution by painting. 5 days later, samples are checked for mortality.

[5] = tested on: Myzus persicae (green peach aphid); experiment: Example B13: drench activity against Myzus persicae, pea seedlings in field soil; settings: 168 h, read-out: drench activity (mortality)
[6] = tested on: Myzus persicae (green peach aphid); experiment: Example B2: activity against Myzus persicae, pea seedling roots in test solution (systemic/feeding, curative); settings: 144 h, read-out: activity (mortality)
[7] = tested on: Myzus persicae (green peach aphid); experiment: Example B1: activity against Myzus persicae, sprayed sunflower leaf discs (feeding/residual contact, preventive); settings: foliar, 144 h, read-out: activity (mortality)
[8] = tested on: Myzus persicae (green peach aphid); experiment: Example B17: activity against Myzus persicae on sprayed pepper plants (feeding/residual contact); type: in vivo; settings: 144 h, infested pepper plants sprayed, 6 days
[9] = tested on: Frankliniella occidentalis (western flower thrips); experiment: Example B6: activity against Frankliniella occidentalis, bean leaf discs or bean plants; type: in vivo; settings: foliar, 6 days (leaf discs) or 14 days (plants) after infestation, read-out: activity (reduction of treated population)
Protocol: Activity Against Frankliniella occidentalis (Western Flower Thrips)
Bean leaf discs on agar in petri dishes or bean plants in a spray chamber are treated with diluted test solutions. After drying leaf discs are cut and placed in plastic cups on the surface of an agar layer and infested with mixed population. 6 days (leaf discs) or 14 days (plants) after the infestation, samples are checked for reduction of treated population and compared to the non treated population.

[10] = tested on: Thrips tabaci (onion thrips); experiment: Example B3: activity against Thrips tabaci, sprayed sunflower leaf discs (feeding/residual contact, preventive); type: in vivo; settings: foliar, 144 h, mixed population, 6 days
From the text: Activity Against Thrips tabaci (Onion Thrips)
(Mixed Population, Feeding/Residual Contact Activity, Preventive)

[11] = tested on: Bemisia tabaci (tobacco white fly); experiment: Example B7: activity against Bemisia tabaci, sprayed bean plants (larvicide, contact/feeding); type: in vivo; settings: 504 h, bean plants with N-2 nymphs sprayed, three weeks, read-out: activity (efficacy, number of emerged adults)
Protocol: Activity Against Bemisia tabaci (Tobacco White Fly)
(Larvicide, Contact/Feeding)
Bean plants are infested with 20-30 adults that were removed after a 4 day egg-laying period. After another 7 days, bean plants with hatched nymphs (N-2) are treated (2 replicates) with the test solutions in a spray chamber. Three weeks later, samples are checked for number of emerged adults. Efficacy was calculated by comparing number of emerged adults in treated and non treated samples.

Row | Structure (SMILES) | mortality at 400 ppm [1] | mortality at 400 ppm [2] | mortality at 400 ppm [3] | mortality at 400 ppm [4] | mortality at 25 ppm [5] | mortality at 400 ppm [6] | mortality at 400 ppm [7] | mortality at 200 ppm [8] | pest or weed control at 400 ppm [9] | mortality at 400 ppm [10] | pest or weed control at 200 ppm [11]
1 | CCOC(=O)OC1=C(c2c(C)cc(C)cc2C)C(=O)N(OCCOC2CCCCO2)C12CCN(OC)CC2 (stereo not drawn) [P1.25] | > 80% | > 80% | > 80% |  |  |  |  |  |  |  | 
2 | CCOC(=O)OC1=C(c2c(C)cc(C)cc2Cl)C(=O)N(OC)C12CCN(OC)CC2 [P1.70] | > 80% | > 80% |  | > 80% | > 80% | > 80% | > 80% |  |  |  | 
3 | CCOC(=O)OC1=C(c2c(C)ccc(C)c2C)C(=O)N(OCOC)C12CCN(OC)CC2 [P1.53] | > 80% | > 80% |  | > 80% | > 80% | > 80% |  | ≥ 80% |  |  | 
4 | CON1CCC2(CC1)C(O)=C(c1c(C)cc(C)cc1Br)C(=O)N2OC [P2.56] | > 80% |  | > 80% | > 80% | > 80% | > 80% | > 80% |  | > 80% |  | 
5 | CCOC(=O)OC1=C(c2c(C)cc(Br)cc2C)C(=O)N(OCOC)C12CCN(OC)CC2 [P1.62] |  |  |  |  |  |  |  |  |  | > 80% | 
6 | CCOC(=O)OC1=C(c2c(C)cc(C)cc2C)C(=O)N(OCC2(C)COC2)C12CCN(OC)CC2 [P1.23] | > 80% |  |  | > 80% | > 80% | > 80% |  |  |  |  | 
7 | CON1CCC2(CC1)C(O)=C(c1c(C)cc(Br)cc1C)C(=O)N2OC1CCCO1 (stereo not drawn) [P2.62] |  |  |  |  |  | > 80% |  | ≥ 80% |  | > 80% | 
8 | CON1CCC2(CC1)C(O)=C(c1c(C)cc(C)cc1C)C(=O)N2OC1CCC1 [P2.30] |  |  | > 80% | > 80% | > 80% | > 80% | > 80% | ≥ 80% | > 80% |  | 
9 | CCOC(=O)OC1=C(c2c(C)cc(C)cc2C)C(=O)N(OCC2CCOC2)C12CCN(OC)CC2 (stereo not drawn) [P1.78] | > 80% | > 80% | > 80% | > 80% | > 80% | > 80% |  | ≥ 80% |  |  | > 80%
10 | CON1CCC2(CC1)C(O)=C(c1c(C)cc(C)cc1C)C(=O)N2OCC1CCCCO1 (stereo not drawn) [P2.23] | > 80% | > 80% |  | > 80% |  | > 80% | > 80% |  |  |  | 
11 | CCOCON1C(=O)C(c2ccc(C)cc2C)=C(OC(=O)OCC)C12CCN(OC)CC2 [P1.49] |  | > 80% | > 80% | > 80% | > 80% | > 80% | > 80% |  |  | > 80% | 
12 | CON1CCC2(CC1)C(O)=C(c1ccc(C)cc1C)C(=O)N2OC [P2.51] |  |  |  |  |  | > 80% | > 80% |  |  | > 80% | 
13 | CON1CCC2(CC1)C(O)=C(c1c(C)cc(C)cc1C)C(=O)N2OC1CCOCC1 [P2.21] | > 80% | > 80% | > 80% | > 80% | > 80% | > 80% | > 80% | ≥ 80% |  |  | 
14 | CON1CCC2(CC1)C(O)=C(c1c(C)cc(C)cc1C)C(=O)N2OC(C)C [P2.11] |  |  | > 80% |  | > 80% | > 80% |  | ≥ 80% | > 80% |  | 
15 | CCOC(=O)OC1=C(c2c(C)cc(C)cc2C)C(=O)N(OCc2ccco2)C12CCN(OC)CC2 [P1.81] |  |  | > 80% |  |  | > 80% | > 80% | ≥ 80% |  | > 80% | 
16 | CCOC(=O)OC1=C(c2c(C)ccc(Cl)c2C)C(=O)N(OCOC)C12CCN(OC)CC2 [P1.55] | > 80% | > 80% |  | > 80% | > 80% | > 80% | > 80% | ≥ 80% |  |  | 
17 | CCOC(=O)OC1=C(c2c(C)cc(C)cc2C)C(=O)N(OC2CCC2)C12CCN(OC)CC2 [P1.45] |  | > 80% | > 80% | > 80% |  | > 80% | > 80% | ≥ 80% | > 80% |  | 
18 | CCOC(=O)OC1=C(c2c(C)cc(C)cc2Cl)C(=O)N(OC2CCCO2)C12CCN(OC)CC2 (stereo not drawn) [P1.107] | > 80% | > 80% |  | > 80% | > 80% | > 80% | > 80% | ≥ 80% |  |  | 
19 | CON1CCC2(CC1)C(O)=C(c1c(C)cc(C)cc1C)C(=O)N2OCC1(C)COC1 [P2.19] | > 80% | > 80% | > 80% | > 80% |  | > 80% | > 80% | ≥ 80% |  |  | 
20 | CCOC(=O)OC1=C(c2cc(C)ccc2C)C(=O)N(O)C12CCN(OC)CC2 [P1.12] |  | > 80% |  |  |  | > 80% | > 80% |  |  | > 80% | 
21 | COCCON1C(=O)C(c2c(C)cc(C)cc2Br)=C(O)C12CCN(OC)CC2 [P2.57] | > 80% | > 80% | > 80% | > 80% | > 80% | > 80% | > 80% |  |  |  | 
22 | CON1CCC2(CC1)C(O)=C(c1c(C)cc(C)cc1C)C(=O)N2OCc1ccoc1 [P2.64] | > 80% | > 80% | > 80% | > 80% | > 80% | > 80% | > 80% | ≥ 80% |  |  | > 80%
23 | CCOC(=O)OC1=C(c2c(C)cc(C)cc2C)C(=O)N(OCC2CCCO2)C12CCN(OC)CC2 (stereo not drawn) [P1.24] | > 80% | > 80% | > 80% | > 80% | > 80% | > 80% | > 80% | ≥ 80% |  |  | 
24 | CCOC(=O)OC1=C(c2ccc(C)cc2C)C(=O)N(OC2CCCO2)C12CCN(OC)CC2 (stereo not drawn) [P1.47] |  |  | > 80% |  |  | > 80% | > 80% |  |  | > 80% | 
25 | CON1CCC2(CC1)C(O)=C(c1c(C)cc(C)cc1C)C(=O)N2OCC1CCOCC1 [P2.84] |  |  |  |  |  | > 80% | > 80% |  |  | > 80% | 
26 | COCON1C(=O)C(c2c(C)ccc(C)c2C)=C(O)C12CCN(OC)CC2 [P2.54] | > 80% |  |  | > 80% | > 80% | > 80% | > 80% | ≥ 80% | > 80% |  | 
27 | CON1CCC2(CC1)C(O)=C(c1c(C)cc(C)cc1C)C(=O)N2OCC1CCOC1 (stereo not drawn) [P2.67] |  |  | > 80% |  |  | > 80% | > 80% | ≥ 80% |  | > 80% | 
28 | COCCON1C(=O)C(c2c(C)cccc2C)=C(O)C12CCN(OC)CC2 [P2.77] |  |  |  |  |  | > 80% | > 80% | ≥ 80% |  | > 80% | 
29 | CCOC(=O)OC1=C(c2c(C)cc(C)cc2C)C(=O)N(OC(C)C)C12CCN(OC)CC2 [P1.14] |  |  |  | > 80% |  | > 80% |  | ≥ 80% | > 80% |  | 
30 | CCOC(=O)OC1=C(c2c(C)ccc(C)c2Cl)C(=O)N(OCOC)C12CCN(OC)CC2 [P1.59] | > 80% | > 80% | > 80% | > 80% | > 80% | > 80% | > 80% |  |  |  | 
